In patent publication US4241069A, “3-Methylene flavanones and 3-methylene chromanones” (Miles Laboratories, Inc., priority 1979, dated 1980):
≈ marks a conversion by molar mass, not a printed value.

Experiments:
[1] = system: S. aureus NRRL B2747; test: MIC, agar incorporation method; type: cell-based, Staphylococcus aureus; details: Staphylococcus aureus, NRRLB2747, 32° C., 24 hours, read-out: Minimal Inhibitory Concentration
Experimental: (§1) The compounds of the present invention were tested for their ability to inhibit the growth of microorganisms by in vitro tests. Generally the in vitro tests involve growing representative microorganisms under conditions favorable to such growth and measuring the effectiveness of one or more compounds in inhibiting or destroying the growth of the microorganisms. The microorganisms used include representative bacteria, fungi and yeasts.
(§2) A representative selection of the test microorganisms were cultured in a nutrient broth, such as, for example, Eugon, commercially available from Difco Laboratories, Detroit, Michigan. Bacteria and Candida species were cultured for 24 hours at 32°-37° C. and fungi were cultured for approximately one week at 32° C. Inocula were prepared by suspending the growth or spores from a slant culture in sufficient sterile normal (0.9 percent) saline or Eugon broth, to yield cell or spore concentrations of 1,000,000 cells per milliliter. Anaerobic bacteria were cultured for 48-72 hours at 32°-37° C. in a thioglycollate containing medium, for example, Fluid Thioglycollate medium or NIH thioglycollate broth, commercially available from Difco Laboratories.
(§3) The compounds of the present invention were tested for activity against bacteria, yeasts and fungi by the agar incorporation method described below. MA 1347, 3-(dimethylaminomethyl)flavanone (disclosed in U.S. Pat. No. 3,753,985) was used as a comparative standard along with controls for each solvent system used.
(§4) A series of agar plates containing two-fold dilutions of each compound to be tested, ranging in concentration from 100 to 3.1 mcg/ml of agar medium was prepared. Aliquots of each concentration (100, 50, 25, 12.5, 6.2, and 3.1) prepared in N,N-dimethylformamide or 50 percent aqueous DMF were added to liquid Eugon agar at 48° C. (one part test solution to 100 parts agar). In some cases, tests with further dilutions to 0.125 mcg/ml were conducted. The agar medium, containing the 3-methylene flavanone or chromanone compound to be tested, was then dispensed into petri dishes and allowed to solidify. The solidified plates were kept overnight at room temperatures to dry the surface of the agar.
(§5) The agar plates were then inoculated with a drop of the standardized cell or spore suspension. Inoculated plates were incubated at 32° C. The inhibition end-point or minimum inhibitory concentration (MIC) shown in Table D represent the lowest concentration of test compound which inhibited the growth of the microorganism. Visual determination of growth inhibition was used. Bacteria and yeast end-points were determined after 24 hours incubation; molds, dermatophytes and anaerobes after 48-72 hours incubation. MIC values shown as ranges represent the extremes found in repeat assays. Virtually all such values were written plus or minus one dilution, the accepted variation of a two-fold dilution assay.

[2] = system: Aspergillus niger ATCC 16404; test: MIC, agar incorporation method; type: cell-based; details: ATCC16404, 32° C., 48-72 hours, read-out: Minimal Inhibitory Concentration
Experimental: as §1, §2, §3, §4, §5

[3] = system: C. albicans NRRL Y-477; test: MIC, agar incorporation method; type: cell-based; details: Candida albicans, NRRLY477, 32° C., 24 hours, read-out: Minimal Inhibitory Concentration
Experimental: as §1, §2, §3, §4, §5

[4] = system: Pseudomonas aeruginosa ATCC 14502; test: MIC, agar incorporation method; type: cell-based; details: ATCC14502, 32° C., 24 hours, read-out: Minimal Inhibitory Concentration
Experimental: as §1, §2, §3, §4, §5

[5] = system: Microsporum gypseum ATCC 14683; test: MIC, agar incorporation method; type: cell-based; details: Nannizzia gypsea, ATCC14683, 32° C., 48-72 hours; read-out: Minimal Inhibitory Concentration
Experimental: as §1, §2, §3, §4, §5

[6] = system: C. guillermondii VM 42; test: MIC, agar incorporation method; type: cell-based; details: 32° C., 24 hours; read-out: Minimal Inhibitory Concentration
Experimental: as §1, §2, §3, §4, §5

[7] = system: A. fumigatus NRRL 165; test: MIC, agar incorporation method; type: cell-based; details: Aspergillus fumigatus, NRRL165, 32° C., 48-72 hours, read-out: Minimal Inhibitory Concentration
Experimental: as §1, §2, §3, §4, §5

[8] = system: Staphylococcus aureus ATCC 6538; test: MIC, agar incorporation method; type: cell-based; details: Staphylococcus aureus, ATCC6538; S. aureus ATCC 6538; 32° C., 24 hours; read-out: Minimal Inhibitory Concentration
Experimental: as §1, §2, §3, §4, §5

[9] = system: Trichophyton mentagrophytes ATCC 4807; test: MIC, agar incorporation method; type: cell-based; details: ATCC4807, 32° C., 48-72 hours, read-out: Minimal Inhibitory Concentration
Experimental: as §1, §2, §3, §4, §5

[10] = system: T. mentagrophytes TM-2; test: MIC, agar incorporation method; type: cell-based; details: Trichophyton mentagrophytes, TM2, 32° C., 48-72 hours, read-out: Minimal Inhibitory Concentration
Experimental: as §1, §2, §3, §4, §5

[11] = system: Streptococcus faecalis ATCC 10541; test: MIC, agar incorporation method; type: cell-based; details: Enterococcus faecalis, ATCC10541; 32° C., 24 hours; read-out: Minimal Inhibitory Concentration
Experimental: as §1, §2, §3, §4, §5

[12] = system: Escherichia coli ATCC 8739; test: MIC, agar incorporation method; type: cell-based; details: ATCC8739, 32° C., 24 hours, read-out: Minimal Inhibitory Concentration
Experimental: as §1, §2, §3, §4, §5

[13] = system: Candida albicans ATCC 10231; test: MIC, agar incorporation method; type: cell-based; details: ATCC10231, C. albicans ATCC 10231, 32° C., 24 hours, read-out: Minimal Inhibitory Concentration
Experimental: as §1, §2, §3, §4, §5

[14] = system: C. tropicalis NRRL Y1410; test: MIC, agar incorporation method; type: cell-based; details: Candida tropicalis, NRRLY1410; 32° C., 24 hours; read-out: Minimal Inhibitory Concentration
Experimental: as §1, §2, §3, §4, §5

[15] = system: C. krusei VM 29B; test: MIC, agar incorporation method; type: cell-based; details: Pichia kudriavzevii, VM29B; 32° C., 24 hours; read-out: Minimal Inhibitory Concentration
Experimental: as §1, §2, §3, §4, §5

[16] = system: T. rubrum ATCC 10218; test: MIC, agar incorporation method; type: cell-based; details: Trichophyton rubrum, ATCC10218; 32° C., 48-72 hours; read-out: Minimal Inhibitory Concentration
Experimental: as §1, §2, §3, §4, §5

[17] = system: A. fumigatus NRRL 163; test: MIC, agar incorporation method; type: cell-based; details: Aspergillus fumigatus, NRRL163, NRRL 163; 32° C., 48-72 hours; read-out: Minimal Inhibitory Concentration
Experimental: as §1, §2, §3, §4, §5

[18] = system: T. mentagrophytes CDC; test: MIC, agar incorporation method; type: cell-based; details: Trichophyton mentagrophytes, 32° C., 48-72 hours, read-out: Minimal Inhibitory Concentration
Experimental: as §1, §2, §3, §4, §5

[19] = system: Propionobacterium acnes ATCC 6919; test: MIC, agar incorporation method, anaerobic; type: cell-based; details: 48 hours at 35° C., GasPak Anaerobic Jar, read-out: Minimal Inhibitory Concentration
Experimental: as §1, §2, §3, §4, §5
(§6) *Anaerobic: 48 hours incubation at 35° C. GasPak Anaerobic Jar

[20] = system: S. aureus NRRL B2747; test: MIC, agar incorporation method, anaerobic; type: cell-based; details: Staphylococcus aureus, NRRLB2747, 48 hours at 35° C., GasPak Anaerobic Jar, read-out: Minimal Inhibitory Concentration
Experimental: as §1, §2, §3, §4, §5, §6

[21] = system: Bacteriodides fragilis ATCC 8482; test: MIC, agar incorporation method, anaerobic; type: cell-based; details: 48 hours at 35° C., GasPak Anaerobic Jar, read-out: Minimal Inhibitory Concentration
Experimental: as §1, §2, §3, §4, §5, §6

[22] = system: Clostridium sporogenes ATCC 11437; test: MIC, agar incorporation method, anaerobic; type: cell-based; details: ATCC11437, 48 hours at 35° C., GasPak Anaerobic Jar, read-out: Minimal Inhibitory Concentration
Experimental: as §1, §2, §3, §4, §5, §6

[23] = system: T. tonsurans ATCC 10217; test: MIC, agar incorporation method; type: cell-based; details: Trichophyton tonsurans, ATCC10217; 32° C., 48-72 hours; read-out: Minimal Inhibitory Concentration
Experimental: as §1, §2, §3, §4, §5

[24] = system: Sarcina subflava ATCC 7468; test: MIC, agar incorporation method; type: cell-based; details: ATCC7468, 32° C., 24 hours, read-out: Minimal Inhibitory Concentration
Experimental: as §1, §2, §3, §4, §5

[25] = system: Clostridium acetobutylicum ATCC 824; test: MIC, agar incorporation method, anaerobic; type: cell-based; details: ATCC824, 48 h, 48 hours at 35° C., GasPak Anaerobic Jar, read-out: Minimal Inhibitory Concentration
Experimental: as §1, §2, §3, §4, §5, §6

[26] = system: Proteus vulgaris NRRL B123; test: MIC, agar incorporation method; type: cell-based; details: NRRLB123, 32° C., 24 hours, read-out: Minimal Inhibitory Concentration
Experimental: as §1, §2, §3, §4, §5

MIC [7]	MIC [16]	Compound	MIC [1]	MIC [2]	MIC [3]	MIC [4]	MIC [5]	MIC [6]	MIC [8]	MIC [9]	MIC [10]	MIC [11]	MIC [12]	MIC [13]	MIC [14]	MIC [15]	MIC [17]	MIC [18]	MIC [19]	MIC [24]	other results
> 100 µg/mL	25 µg/mL (≈ 63.4 µM)	C=C1C(=O)c2cc(Br)ccc2OC1c1ccc(Br)cc1 (stereo not drawn) [Ex. 17, 4',6-dibromo-3-methylene flavanone]	12.5 µg/mL (≈ 31.7 µM)	> 100 µg/mL	100 µg/mL (≈ 254 µM)	> 100 µg/mL	50 µg/mL (≈ 127 µM)	> 100 µg/mL	6.2 µg/mL (≈ 15.7 µM)	12.5 µg/mL (≈ 31.7 µM)	25 µg/mL (≈ 63.4 µM)	> 100 µg/mL	> 100 µg/mL	100 µg/mL (≈ 254 µM)	> 100 µg/mL	100 µg/mL (≈ 254 µM)	> 100 µg/mL	50 µg/mL (≈ 127 µM)	–	–	–
–	–	C=C1C(=O)c2ccccc2OC1(c1ccccc1)c1cccs1 (stereo not drawn) [Ex. 21, 3-Methylene-2-(2-thienyl) flavanone]	0.5 µg/mL (≈ 1.57 µM)	> 100 µg/mL	> 100 µg/mL	> 100 µg/mL	6.2 µg/mL (≈ 19.5 µM)	> 100 µg/mL	0.5 µg/mL (≈ 1.57 µM)	12.5 µg/mL (≈ 39.3 µM)	12.5 µg/mL (≈ 39.3 µM)	1 µg/mL (≈ 3.14 µM)	> 100 µg/mL	> 100 µg/mL	> 100 µg/mL	> 100 µg/mL	100 µg/mL (≈ 314 µM)	12.5 µg/mL (≈ 39.3 µM)	1 µg/mL (≈ 3.14 µM)	1.56 µg/mL (≈ 4.9 µM)	MIC [20]: 1.56 µg/mL (≈ 4.9 µM); MIC [21]: 0.25 µg/mL (≈ 0.785 µM); MIC [22]: 0.5 µg/mL (≈ 1.57 µM); MIC [23]: 6.2 µg/mL (≈ 19.5 µM)
50 µg/mL (≈ 185 µM)	≤ 3.1 µg/mL	C=C1C(=O)c2ccccc2OC1c1ccc(Cl)cc1 (stereo not drawn) [Ex. 3, 4'-chloro-3-methylene flavanone]	3.1 µg/mL (≈ 11.5 µM)	25 µg/mL (≈ 92.3 µM)	12.5 µg/mL (≈ 46.2 µM)	> 100 µg/mL	6.2 µg/mL (≈ 22.9 µM)	25 µg/mL (≈ 92.3 µM)	≤ 3.1 µg/mL	6.2 µg/mL (≈ 22.9 µM)	6.2 µg/mL (≈ 22.9 µM)	25 µg/mL (≈ 92.3 µM)	> 100 µg/mL	12.5 µg/mL (≈ 46.2 µM)	25 µg/mL (≈ 92.3 µM)	12.5 µg/mL (≈ 46.2 µM)	6.2 µg/mL (≈ 22.9 µM)	6.2 µg/mL (≈ 22.9 µM)	≤ 100 µg/mL	6.2 µg/mL (≈ 22.9 µM)	MIC [25]: ≤ 100 µg/mL; MIC [26]: > 100 µg/mL
–	–	C=C1C(=O)c2ccccc2OC1(c1ccccc1)c1ccncc1 (stereo not drawn) [Ex. 22, 3-Methylene-2-(4-pyridyl) flavanone]	0.78 µg/mL (≈ 2.49 µM)	> 100 µg/mL	100 µg/mL (≈ 319 µM)	> 100 µg/mL	12.5 µg/mL (≈ 39.9 µM)	> 100 µg/mL	0.78 µg/mL (≈ 2.49 µM)	12.5 µg/mL (≈ 39.9 µM)	12.5 µg/mL (≈ 39.9 µM)	3.1 µg/mL (≈ 9.89 µM)	> 100 µg/mL	100 µg/mL (≈ 319 µM)	> 100 µg/mL	100 µg/mL (≈ 319 µM)	25 µg/mL (≈ 79.8 µM)	25 µg/mL (≈ 79.8 µM)	1 µg/mL (≈ 3.19 µM)	3.1 µg/mL (≈ 9.89 µM)	MIC [20]: 1 µg/mL (≈ 3.19 µM); MIC [21]: 0.25 µg/mL (≈ 0.798 µM); MIC [22]: 0.5 µg/mL (≈ 1.6 µM); MIC [23]: 6.2 µg/mL (≈ 19.8 µM)
